These are literature values, as cited in patent US20120077872A1, “PRESERVATIVE-FREE PHARMACEUTICAL TETRAHYDROLIPSTATIN COMPOSITIONS” (EMS S.A., priority 2009, published 2012).

For the data set the following is noted: stored at dry atmosphere.

As for `CCCCCCCCCCC[C@@H](C[C@@H]1OC(=O)[C@H]1CCCCCC)OC(=O)[C@H](CC(C)C)NC=O` [THL, N-Formyl-L-leucine (1S)-1-[[(2S,3S)-3-hexyl-4-oxo-2-oxetanyl]methyl]dodecyl ester], the “temperature at which degradation starts” value is “around 40 °C”.
